{
  "source": "patent US20090291964A1",
  "about": "“Potentiators of Antibacterial Activity” (priority 2003, published 2009)",
  "type_in_all_cases": "cell-based",
  "key": {"S. aureus ATCC 29213 [1]": {"test_system": "S. aureus ATCC 29213", "test": "MIC by NCCLS microdilution, antibacterial agents with and without EPI", "details": "for MIC: Staphylococcus aureus, ATCC29213, S. aureus ATCC 29213", "procedure,_shortened": "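Efflux pump inhibitors were combined at fixed concentrations with antibiotics from several classes and tested against Staphylococcus aureus ATCC 29213 to compare minimum inhibitory concentrations with and without inhibitor. The inhibitor level was tied to its minimal effective concentration for ethidium bromide, a general efflux pump substrate. All assays contained a final concentration of 1% DMSO.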"}, "E. faecalis ATCC 29212": {"test_system": "E. faecalis ATCC 29212", "test": "MIC by NCCLS microdilution, EtBr/EPI with and without EPI", "details": "E. faecalis ATCC 29212; for MIC: Enterococcus faecalis, ATCC29212", "protocol": "(§1) 3% sterile laked horse blood (Quad Five, Ryegate, Mont.) was added to assays for E. faecalis and S. Pneumoniae. A final concentration of 1% DMSO was present in all assays.\n(§2) EtBr is a general substrate for many different efflux pumps in bacteria. Markham et al., “Multiple Novel Inhibitors of the NorA Multidrug Transporter of Staphylococcus aureus”, Antimicrob. Agents Chemother. 43:2404-2408 (1999). Since EtBr is a non-specific DNA intercalator, the only known mechanism of resistance to EtBr is via efflux. Markham et al., “Multiple Novel Inhibitors of the NorA Multidrug Transporter of Staphylococcus aureus”, Antimicrob. Agents Chemother. 43:2404-2408 (1999)."}, "S. pneumoniae ATCC 10015": {"test_system": "S. pneumoniae ATCC 10015", "test": "MIC by NCCLS microdilution, EtBr/EPI with and without EPI", "details": "for MIC: Streptococcus pneumoniae, ATCC10015", "protocol": "as §1, §2"}, "[2]": {"test_system": "S. aureus SA-1199B (NorA overproducing)", "test": "MIC of fluoroquinolones with and without EPI", "procedure,_shortened": "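Fluoroquinolone MICs determined with and without efflux pump inhibitor in S. aureus SA-1199B (NorA overproducer with A116E GrlA mutation) and SA-K2068 (SA-8325-4 with a non-NorA multidrug efflux pump overproducing mutation). All assays contained 1% DMSO final.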"}, "[3]": {"test_system": "S. aureus SA-1199 (clinical isolate, susceptible)", "test": "MIC of fluoroquinolones with and without EPI", "details": "S. aureus SA-1199, EPI at 4X the MEC for EtBr, VX-710 at 100 μg/ml", "procedure,_shortened": "(§3)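 Fluoroquinolone MICs determined with and without efflux pump inhibitor; all assays contained 1% DMSO final. SA-8325-4 is NCTC 8325 cured of prophages; SA-1199 is a susceptible clinical isolate.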"}, "S. aureus SA-8325-4": {"test_system": "S. aureus SA-8325-4", "test": "MIC of fluoroquinolones with and without EPI", "details": "S. aureus SA-8325-4, EPI at 4X the MEC for EtBr, VX-710 at 100 μg/ml", "procedure,_shortened": "as §3"}, "S. aureus K2068": {"test_system": "S. aureus K2068", "test": "Minimal effective concentration (MEC) of EPI for gatifloxacin", "details": "S. aureus K2068 (nonNorA pump overproducer); lowest amount of EPI which produces the maximum effect on the MIC of gatifloxacin", "protocol": "(§4) The MEC was determined as the minimal concentration of EPI that produced the maximal reduction in substrate MIC.\n(§5) Since any given compound may be recognized by an unknown number of efflux pumps in a particular organism, we reasoned that the MEC of A-106 and C-9 should vary for different antibiotics. Also, the MEC of A-106 and C-9 should vary with the degree of efflux expression in a given strain. […] This was confirmed with two other wild type strains, SA-8325-4 and SA-1199 (Table 3).\nThe MEC of A-106 and C-9 for gatifloxacin was determined in these efflux mutants. […] A similar result was obtained with efflux mutant K2068, where the MEC for A-106 was 6.25 μg/ml and the MEC for C-9 was 3.1 μg/ml. […] This may reflect that either gatifloxacin is recognized by fewer pumps than EtBr or it is a poorer efflux substrate in general. This is consistent with the finding that the activity of A-106 was non-saturable for EtBr but is saturable for gatifloxacin."}, "S. aureus ATCC 29213 [4]": {"test_system": "S. aureus ATCC 29213", "test": "Minimal effective concentration (MEC) of EPI for gatifloxacin", "details": "lowest amount of EPI which produces the maximum effect on the MIC of gatifloxacin", "protocol": "as §4, §5"}, "[5]": {"details": "S. aureus ATCC 29213, EPI at 4X the MEC for EtBr, VX-710 at 100 μg/ml"}, "[6]": {"details": "EPI alone, read-out: MIC of EPI"}, "[7]": {"details": "EPIs used at the MEC, except VX-710 at 100 μg/ml, read-out: MIC of EtBr with EPI"}, "[8]": {"details": "S. aureus SA-1199B, EPI at 4X the MEC for EtBr, VX-710 at 100 μg/ml"}, "[9]": {"details": "Staphylococcus aureus, read-out: MIC of EtBr with EPI"}},
  "note": "Like-named read-outs stand apart in the source and are kept apart here.",
  "data": [
    {"smiles": "COC(=O)[C@H]1[C@H]2C[C@@H]3c4[nH]c5cc(OC)ccc5c4CCN3C[C@H]2C[C@@H](OC(=O)c2cc(OC)c(OC)c(OC)c2)[C@@H]1OC", "note": "[reserpine, reference compound]", "values": [
      {"measurement": "MIC of gatifloxacin with EPI", "setting": "S. aureus ATCC 29213 [1]; S. aureus ATCC 29213 (Table 4)", "result": 0.125, "unit": "µg/mL"},
      {"measurement": "MIC of ciprofloxacin with EPI", "setting": "S. aureus ATCC 29213 [1]; [5]", "result": 0.063, "unit": "µg/mL"},
      {"measurement": "MIC of gatifloxacin with EPI", "setting": "S. aureus ATCC 29213 [1]; [5]", "result": 0.063, "unit": "µg/mL"},
      {"measurement": "MIC of gentamicin with EPI", "setting": "S. aureus ATCC 29213 [1]; [5]", "result": 0.125, "unit": "µg/mL"},
      {"measurement": "MIC of levofloxacin with EPI", "setting": "S. aureus ATCC 29213 [1]; [5]", "result": 0.125, "unit": "µg/mL"},
      {"measurement": "MIC of norfloxacin with EPI", "setting": "S. aureus ATCC 29213 [1]; [5]", "result": 0.25, "unit": "µg/mL"},
      {"measurement": "Fold-reduction in EtBr MIC", "setting": "S. aureus ATCC 29213 [1]; S. aureus ATCC 29213, EPIs used at the MEC, except VX-710 at 100 μg/ml", "result": 4},
      {"measurement": "MIC", "setting": "S. aureus ATCC 29213 [1]; [6]", "result": "> 100", "unit": "µg/mL"},
      {"measurement": "MIC", "setting": "S. aureus ATCC 29213 [1]; EPI at 4X the MEC for EtBr, VX-710 at 100 μg/ml, read-out: MIC of EtBr with EPI", "result": 0.4, "unit": "µg/mL"},
      {"measurement": "MIC", "setting": "S. aureus ATCC 29213 [1]; [7]", "result": 1.6, "unit": "µg/mL"},
      {"measurement": "Fold-reduction in MIC", "setting": "S. aureus ATCC 29213 [1]; gatifloxacin, S. aureus ATCC 29213", "result": 1},
      {"measurement": "Fold-reduction in EtBr MIC", "setting": "E. faecalis ATCC 29212; EPIs used at the MEC, except VX-710 at 100 μg/ml", "result": 8},
      {"measurement": "MIC", "setting": "E. faecalis ATCC 29212; [6]", "result": "> 100", "unit": "µg/mL"},
      {"measurement": "MIC", "setting": "E. faecalis ATCC 29212; [7]", "result": 0.8, "unit": "µg/mL"},
      {"measurement": "Fold-reduction in EtBr MIC", "setting": "S. pneumoniae ATCC 10015; S. pneumoniae ATCC 10015, EPIs used at the MEC, except VX-710 at 100 μg/ml", "result": 50},
      {"measurement": "reduction in the MIC of EtBr", "setting": "S. pneumoniae ATCC 10015; S. pneumoniae, reserpine 25 μg/ml (maximal subinhibitory concentration)", "result": 50, "unit": "fold"},
      {"measurement": "MIC", "setting": "S. pneumoniae ATCC 10015; S. pneumoniae ATCC 10015, EPI alone, read-out: MIC of EPI", "result": 50, "unit": "µg/mL"},
      {"measurement": "MIC", "setting": "S. pneumoniae ATCC 10015; S. pneumoniae ATCC 10015, EPIs used at the MEC, except VX-710 at 100 μg/ml, read-out: MIC of EtBr with EPI", "result": 0.04, "unit": "µg/mL"},
      {"measurement": "MIC", "setting": "S. pneumoniae ATCC 10015; S. pneumoniae, read-out: MIC of EPI alone", "result": 50, "unit": "µg/mL"},
      {"measurement": "MIC of gatifloxacin with EPI", "setting": "[2]; S. aureus SA-1199B (NorA overproducer) (Table 4)", "result": 0.25, "unit": "µg/mL"},
      {"measurement": "MIC of ciprofloxacin with EPI", "setting": "[2]; [8]", "result": 0.5, "unit": "µg/mL"},
      {"measurement": "MIC of gatifloxacin with EPI", "setting": "[2]; [8]", "result": 0.125, "unit": "µg/mL"},
      {"measurement": "MIC of gentamicin with EPI", "setting": "[2]; [8]", "result": 0.125, "unit": "µg/mL"},
      {"measurement": "MIC of levofloxacin with EPI", "setting": "[2]; [8]", "result": 0.5, "unit": "µg/mL"},
      {"measurement": "MIC of norfloxacin with EPI", "setting": "[2]; [8]", "result": 4, "unit": "µg/mL"},
      {"measurement": "MIC", "setting": "[2]; [9]", "result": 0.8, "unit": "µg/mL"},
      {"measurement": "Fold-reduction in MIC", "setting": "[2]; gatifloxacin, S. aureus SA-1199B (NorA overproducer)", "result": 2},
      {"measurement": "MIC of ciprofloxacin with EPI", "setting": "[3]", "result": 0.063, "unit": "µg/mL"},
      {"measurement": "MIC of gatifloxacin with EPI", "setting": "[3]", "result": 0.063, "unit": "µg/mL"},
      {"measurement": "MIC of gentamicin with EPI", "setting": "[3]", "result": 0.125, "unit": "µg/mL"},
      {"measurement": "MIC of levofloxacin with EPI", "setting": "[3]", "result": 0.125, "unit": "µg/mL"},
      {"measurement": "MIC of norfloxacin with EPI", "setting": "[3]", "result": 0.125, "unit": "µg/mL"},
      {"measurement": "MIC", "setting": "[3]; [9]", "result": 0.4, "unit": "µg/mL"},
      {"measurement": "MIC of ciprofloxacin with EPI", "setting": "S. aureus SA-8325-4", "result": 0.125, "unit": "µg/mL"},
      {"measurement": "MIC of gatifloxacin with EPI", "setting": "S. aureus SA-8325-4", "result": 0.125, "unit": "µg/mL"},
      {"measurement": "MIC of gentamicin with EPI", "setting": "S. aureus SA-8325-4", "result": 0.063, "unit": "µg/mL"},
      {"measurement": "MIC of levofloxacin with EPI", "setting": "S. aureus SA-8325-4", "result": 0.25, "unit": "µg/mL"},
      {"measurement": "MIC of norfloxacin with EPI", "setting": "S. aureus SA-8325-4", "result": 0.25, "unit": "µg/mL"},
      {"measurement": "MIC", "setting": "S. aureus SA-8325-4; Staphylococcus aureus, SA83254, read-out: MIC of EtBr with EPI", "result": 0.4, "unit": "µg/mL"},
      {"measurement": "MEC", "setting": "S. aureus K2068", "result": 3.1, "unit": "µg/mL"},
      {"measurement": "MEC", "setting": "S. aureus ATCC 29213 [4]", "result": ">100", "unit": "µg/mL"}
    ]}
  ]
}
